The values that follow come from ChEMBL document CHEMBL4002572, “Development of CXCR4 modulators by virtual HTS of a novel amide-sulfamide compound library” (Eur J Med Chem, 2017).

A word on the inhibition in vivo: it is the relative decrease from the control value, in per cent. Usually inhibition stands for the relative decrease from the control value, in per cent.

Series [1] concerns Mus musculus. Description: Anti-inflammatory activity in Swiss albino mouse assessed as inhibition of xylene-induced ear edema at 30 mg/kg, ip pretreated for 1 hr followed by xylene challenge measured after 30 mins relative to control. Type of series: functional.
For series [2], the target named is C-X-C chemokine receptor type 4 (Mus musculus) (UniProt P70658). Description: Inhibition of CXCR4 in mouse J774A.1 cells assessed as reduction in Crohn's disease-associated Escherichia coli 131 infection-induced TNF-alpha level at 200 nM relative to control. Format: cell-based.
Sequence of C-X-C chemokine receptor type 4 (Mus musculus) (P70658 whole entry): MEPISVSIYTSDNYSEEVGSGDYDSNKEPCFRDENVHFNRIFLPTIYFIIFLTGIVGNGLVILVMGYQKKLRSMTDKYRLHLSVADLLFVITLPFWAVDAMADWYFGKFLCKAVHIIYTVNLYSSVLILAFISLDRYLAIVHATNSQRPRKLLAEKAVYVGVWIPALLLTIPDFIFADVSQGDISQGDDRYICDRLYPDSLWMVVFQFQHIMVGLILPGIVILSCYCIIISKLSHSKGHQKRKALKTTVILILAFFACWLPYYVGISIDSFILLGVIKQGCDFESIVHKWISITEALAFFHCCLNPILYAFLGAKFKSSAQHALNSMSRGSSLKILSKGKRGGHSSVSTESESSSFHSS
In series [3] the test system is Mus musculus. Description: Anti-inflammatory activity in xylene-induced ear edema mouse model assessed as reduction in ear thickness at 10 mg/kg, ip administered 30 mins post xylene challenge measured after 2 hrs by hematoxylin/eosin dye-based assay. Type of series: functional, organism-based.
Series [4] deals with C-X-C chemokine receptor type 4 (Homo sapiens) (UniProt P61073). Description: Potency index, ratio of AMD3100 EC to compound EC for displacement of biotinylated TN14003 from CXCR4 in human MDA-MB-231 cells. Format: cell-based.
Sequence of C-X-C chemokine receptor type 4 (Homo sapiens) (P61073 whole entry): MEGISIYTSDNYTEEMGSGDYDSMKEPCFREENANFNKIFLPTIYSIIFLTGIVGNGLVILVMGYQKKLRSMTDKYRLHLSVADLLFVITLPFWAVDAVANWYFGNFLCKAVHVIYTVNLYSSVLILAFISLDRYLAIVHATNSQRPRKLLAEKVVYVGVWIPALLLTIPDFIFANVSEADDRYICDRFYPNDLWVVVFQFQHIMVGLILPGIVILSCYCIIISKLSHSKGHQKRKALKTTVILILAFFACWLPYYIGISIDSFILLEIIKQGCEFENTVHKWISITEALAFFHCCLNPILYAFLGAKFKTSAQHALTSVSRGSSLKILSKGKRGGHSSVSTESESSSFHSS
The subject of series [5] is MDA-MB-231. Description: Cytotoxicity against human MDA-MB-231 cells assessed as cell viability at 10 uM measured after 24 hrs by MTT assay. Type of series: cell-based. The note with it: mda-mb-231, 24 h. On the technique in general: Tetrazolium dyes change colour on reduction, which living cells bring about.
Series [6] deals with C-X-C chemokine receptor type 4 (Homo sapiens) (UniProt P61073). Description: Displacement of biotinylated-TN14003 from CXCR4 in human MDA-MB-231 cells assessed as reduction in fluorescence preincubated for 10 mins followed by biotinylated-TN14003 addition measured after 30 mins by streptavidin-rhodamine staining based microscopic analysis. Format: cell-based.
Series [7] has the same target. Description: Inhibition of CXCR4/CXCL12 (unknown origin) interaction-mediated Akt phosphorylation by western blot analysis. For orientation: In western blotting, separated proteins are transferred to a membrane and probed.
Series [8] deals with Mus musculus. Description: Anti-inflammatory activity in xylene-induced ear edema mouse model assessed as reduction in edema volume at 10 mg/kg, ip administered 30 mins post xylene challenge measured after 2 hrs by hematoxylin/eosin dye-based assay. Format: functional, organism-based.
In series [9] the test system is Mus musculus. Description: Anti-inflammatory activity in mouse assessed as inhibition of xylene-induced ear edema at 10 mg/kg, ip administered 30 mins post xylene challenge measured after 2 hrs relative to control. Type of series: functional.
The target of series [10] is C-X-C chemokine receptor type 4 (Homo sapiens) (UniProt P61073). Description: Inhibition of CXCR4/CXCL12 interaction-mediated chemotaxis in human MDA-MB-231 cells assessed as inhibition of cell invasion at 100 nM after 22 hrs by hematoxylin/eosin dye-based matrigel assay relative to control.
Series [11] concerns Mus musculus. Description: Anti-inflammatory activity in xylene-induced ear edema mouse model assessed as reduction in inflammatory cells at 10 mg/kg, ip administered 30 mins post xylene challenge measured after 2 hrs by hematoxylin/eosin dye-based assay. Type of series: functional, organism-based.

The structures appear in SMILES notation. Activity calls are given as the source filed them. No cut-off for these calls is given here. Where only a bound is given, the exact number is not on record here.

For the compound `Cc1ccc(-c2cc(C(F)(F)F)nn2-c2ccc(S(N)(=O)=O)cc2)cc1` [CELECOXIB], the inhibition in vivo at 30 mg/kg in series [1] came out at 47%.

For `O=C(NCc1ccc(CNS(=O)(=O)c2ccc(F)cc2F)cc1)c1cncnc1`, the inhibition in [2] was 67%; in [7], “Dose-dependent effect”; in series [10], 74%. Further, the outcome in series [3], in series [8] and in series [11] was Active. Besides, in series [4], the Ratio worked out at 1000. Besides, the Activity entry in [5] was “Non-Toxic”. Further, the EC in [6] was determined as 1 nM. Also, the inhibition in vivo at 10 mg/kg in series [9] is 56%.

Regarding `O=C(NCc1ccc(CNS(=O)(=O)c2ccc3c(c2)CCO3)cc1)c1cc2ccccn2n1`, the Ratio in series [4] was 1000. The EC in series [6] was 1 nM. Moreover, in [10], the inhibition stood at 40%.

Regarding `c1cc(CN2CCCNCCNCCCNCC2)ccc1CN1CCCNCCNCCCNCC1`, the inhibition in [10] was found to be 55%.

Consider `O=C(NCc1ccc(CNS(=O)(=O)c2ccccc2F)cc1)c1cc2ccccn2n1`, for which, in series [6], the EC came to 100 nM. Also, in series [10], the inhibition turned out to be 40%.

Regarding `O=C(NCc1ccc(CNS(=O)(=O)c2ccc(F)c(F)c2)cc1)c1cnc2ccccn12`, the EC in [6] was more than 1000 nM.

For the compound `O=C(NCc1ccc(CNS(=O)(=O)c2ccc3c(c2)CCO3)cc1)c1scc2c1OCCO2`, in series [6], the EC is 10 nM. Also, the inhibition in vivo at 10 mg/kg in [9] turned out to be 0%. Moreover, in series [10], the inhibition amounted to 68%.

With `O=C(NCc1ccc(CNS(=O)(=O)c2cccc(F)c2)cc1)c1cc2ccccn2n1`, the EC in [6] came out at 1000 nM. For the same compound, the inhibition in series [10] was determined as 40%.

As to `Cn1nccc1C(=O)NCc1ccc(CNS(=O)(=O)c2ccc3c(c2)CCO3)cc1`, the EC in series [6] came out at 1000 nM. In addition, the inhibition in vivo at 10 mg/kg in [9] is 38%. In addition, the inhibition in series [10] came out at 40%.

For the compound `Cc1cc(C(=O)NCc2ccc(CNS(=O)(=O)c3ccc4c(c3)CCO4)cc2)n(C)n1`, the EC in series [6] stood at 1000 nM. Besides, the inhibition in vivo at 10 mg/kg in series [9] came to 35%. Further, the inhibition entry in series [10] is “Active”.

`O=C(NCc1ccc(CNS(=O)(=O)c2ccc3c(c2)CCO3)cc1)c1cccnc1`: the EC in series [6] is 1000 nM. Besides, the inhibition in vivo at 10 mg/kg in [9] came out at 10%. For the same compound, in series [10], the inhibition was found to be 60%.

In the case of `O=C(NCc1ccc(CNS(=O)(=O)c2ccc(F)cc2F)cc1)c1ncc[nH]1`, the EC in series [6] is more than 1000 nM.

For `Cc1nnsc1C(=O)NCc1ccc(CNS(=O)(=O)c2ccc(F)c(F)c2)cc1`, the outcome in series [3], in series [8] and in [11] was Active. Further, the EC in series [6] amounted to 10 nM. Also, the inhibition in vivo at 10 mg/kg in series [9] was found to be 54%. Besides, the inhibition in series [10] is 40%.

With `O=C(NCc1ccc(CNS(=O)(=O)c2ccc3c(c2)CCO3)cc1)c1cccc2c1COC2`, in series [6], the EC is 1000 nM. For the same compound, the inhibition in series [10] stood at 40%.
